From PubChem BioAssay AID1996
Converted amounts (≈) assume the structure as drawn.

Details: buffer; pH 7.4; 200.0 µM

Row | Structure (SMILES) | solubility kinetic
1 | O=C1Nc2ccc3sc4ccccc4c3c2C1=O | 0.6 µg/mL (≈ 2.37 µM)
2 | Nc1nc(Nc2cccc(Cl)c2)nc(NCc2ccco2)c1[N+](=O)[O-] | 3 µg/mL (≈ 8.32 µM)
3 | COc1ccc(C(=O)Nc2ccccc2N2CCCC2)cc1 | 25.6 µg/mL (≈ 86.4 µM)
4 | COCCOC(=O)C1=C(C)NC(=O)NC1c1cccc2ccccc12 (centres undefined) | 48.8 µg/mL (≈ 143 µM)
5 | COC(=O)c1cc(Sc2cccc(Cl)c2Cl)ccn1 | 26.3 µg/mL (≈ 83.7 µM)
6 | COC(=O)CN1C(=O)Nc2ccc(Cl)cc2C1c1ccccc1 (centres undefined) | 2.1 µg/mL (≈ 6.35 µM)
7 | CCOC(=O)Cc1csc(-n2sc3ccccc3c2=O)n1 | 29.8 µg/mL (≈ 93 µM)
8 | CCN(CC)S(=O)(=O)c1ccc(-c2csc(C)n2)cc1 | 37.3 µg/mL (≈ 120 µM)
9 | CC(C)(C)NC(=O)C1CC1(c1ccccc1)c1ccccc1 (centres undefined) | 2.8 µg/mL (≈ 9.54 µM)
10 | O=C1NC(=O)/C(=C/c2cc3c(cc2Br)OCO3)S1 | > 49.2 µg/mL
11 | N#Cc1cccc(Nc2c3c(nc4ccccc24)CCC3)c1 | 8.4 µg/mL (≈ 29.4 µM)
12 | Cc1ccc(-c2c[n+](CC(=O)Nc3ccccc3)c3n2CCC3)cc1.[Cl-] | > 55.2 µg/mL
13 | CC(C)(C)c1ccc(C2=NC(=O)C(CC(=O)O)S2)cc1 (centres undefined) | 37.4 µg/mL (≈ 128 µM)
14 | Cc1ccc(N2C(=O)C3C4C=CC(CC4)C3C2=O)cc1Br (centres undefined) | < 0.7 µg/mL
15 | C/C(=N/NC(=O)CNC(=O)c1ccncc1)c1ccco1 | > 42.9 µg/mL
16 | CC(=O)N1c2ccccc2Sc2ccccc21 | 26.4 µg/mL (≈ 109 µM)
17 | O=C(CCNS(=O)(=O)c1ccccc1C(F)(F)F)NCCCN1CCOCC1 | > 63.5 µg/mL
18 | CC(C)C1Oc2ccccc2N(CC(=O)N(C)C2CCCCC2)C1=O (centres undefined) | > 51.7 µg/mL
19 | CCc1nc2sc3c(c2c(=S)[nH]1)CC(C)(C)OC3 | 1.9 µg/mL (≈ 6.78 µM)
20 | Cc1ccc(CCC(=O)Nc2ccc(C#N)cc2)o1 | 37 µg/mL (≈ 146 µM)

Row | Structure (SMILES) | solubility kinetic
21 | CCNC(=O)C(C)NC(=O)C1=NN(c2ccccc2)C(=O)CC1 (centres undefined) | > 47.5 µg/mL
22 | O=C(CCN1C(=O)COc2ccccc21)N1CCN(c2ccccc2)CC1 | 47 µg/mL (≈ 129 µM)
23 | Cc1cc(C)cc(OC(C)C(=O)Nc2ccc3c(c2)n(C)c(=O)n3C)c1 (centres undefined) | 37.9 µg/mL (≈ 107 µM)
24 | COC(=O)c1ccccc1S(=O)(=O)N1CCC(C(=O)Nc2ccc(N3CCOCC3)cc2)CC1 | > 73.1 µg/mL
25 | CC(NC(=O)C12CC3CC(CC(C3)C1)C2)c1ccc(F)cc1 (centres undefined) | 1.4 µg/mL (≈ 4.64 µM)
26 | COc1ccc(NC(=O)c2csc(C)c2)cc1OC | > 41.6 µg/mL
27 | COc1ccc(C2NC(=O)N(C)C(C)=C2[N+](=O)[O-])cc1 (centres undefined) | > 41.6 µg/mL
28 | CN(CC(=O)NCCN1CCOCC1)S(=O)(=O)c1ccc(Cl)cc1 | > 56.4 µg/mL
29 | CC(CN1CCOCC1)OC(=O)c1ccccc1Cl.Cl (centres undefined) | > 48 µg/mL
30 | CC(C)(C)C(=O)NC1CC2CCCC(C1)N2C(=O)Nc1ccccc1 (centres undefined) | 12.8 µg/mL (≈ 37.3 µM)
31 | O=C(Nc1cccnc1)c1ccc(Cl)cc1[N+](=O)[O-] | > 41.7 µg/mL
32 | Cc1ccc(O)c(CNc2nc3ccccc3[nH]2)c1 | > 38 µg/mL
33 | CC(OC(=O)/C=C/c1cccs1)C(=O)NC1CCCCC1C (centres undefined) | 4.9 µg/mL (≈ 15.2 µM)
34 | CS(=O)(=O)c1ccc(C(=O)OCC(=O)NCc2cccs2)cc1[N+](=O)[O-] | 16.1 µg/mL (≈ 40.4 µM)
35 | CCOC(=O)CN(C#N)c1nc(N(C)C)nc(N(C)C)n1 | 17.8 µg/mL (≈ 60.7 µM)
36 | O=C(c1cccc(OCc2ccccc2)c1)N1CCOCC1 | 42.9 µg/mL (≈ 144 µM)
37 | COC(=O)Cc1ccc2oc(-c3cccnc3)nc2c1 | 37 µg/mL (≈ 138 µM)
38 | CC(=O)c1ccc(Sc2ccccc2)c([N+](=O)[O-])c1 | 3.1 µg/mL (≈ 11.3 µM)
39 | O=C(Nc1ccccc1)N1CCCN(c2c(Cl)cncc2Cl)CC1 | 10.9 µg/mL (≈ 29.8 µM)
40 | CC(=O)Nc1ccc(NC(=O)C(C)OC(=O)c2ccc(S(=O)(=O)N3CCCCCC3)cc2)cc1 (centres undefined) | 9.6 µg/mL (≈ 19.7 µM)

Row | Structure (SMILES) | solubility kinetic
41 | CC(NC(=O)c1ccccc1F)c1ccccc1 (centres undefined) | > 36.5 µg/mL
42 | O=C(Cc1ccc(Br)cc1)NC1CCCc2ccccc21 (centres undefined) | 1.5 µg/mL (≈ 4.36 µM)
43 | Cc1cccc(OCC(O)Cn2ccnc2C)c1 (centres undefined) | 33.2 µg/mL (≈ 135 µM)
44 | CCOc1cc2c(cc1OC)C(NC(=O)c1ccco1)CC2=O (centres undefined) | > 47.3 µg/mL
45 | Cc1cccn2c(=O)c(/C=C(\C#N)C(N)=O)c(Oc3ccccc3)nc12 | 7.9 µg/mL (≈ 22.8 µM)
46 | Nc1sc2c(c1C(=O)NCCc1ccccc1)CCC2 | 17 µg/mL (≈ 59.4 µM)
47 | Cc1cc(C)c2nc(N3CCOCC3)c(C#N)cc2c1 | 0.2 µg/mL (≈ 0.748 µM)
48 | COC(=O)c1[nH]c2ccccc2c1CN1CCOCC1 | > 41.1 µg/mL
49 | O=C(/C=C/C(=O)NCc1cccs1)NCc1cccs1 | 0.6 µg/mL (≈ 1.96 µM)
50 | CCOC(=O)C1CCN(CCC(=O)Nc2ccc(C)c(C)c2)CC1 | > 49.9 µg/mL
51 | COn1c(=O)c(-c2cccc(Br)c2)[n+]([O-])c2ccccc21 | 4.9 µg/mL (≈ 14.1 µM)
52 | CNC(=O)COC(=O)c1c2c(nc3ccccc13)CCC2 | 39.1 µg/mL (≈ 138 µM)
53 | CC(=O)N/C(=N/c1nc(C)cc(C)n1)Nc1cccc(C)c1 | 22.2 µg/mL (≈ 74.7 µM)
54 | Cn1c(N)c(C(=O)COC(=O)c2ccc(-c3ccccc3)cc2)c(=O)n(C)c1=O | 6.8 µg/mL (≈ 17.3 µM)
55 | CCN(CC)c1ccc(C(=O)OCc2c(C)noc2C)cc1 | 2.8 µg/mL (≈ 9.26 µM)
56 | Cc1ccc(NC(=O)CN2c3cccc4cccc(c34)S2(=O)=O)cc1 | 3.8 µg/mL (≈ 10.8 µM)
57 | CCOCCCNC(=O)c1cc2c(=O)n3cccc(C)c3nc2s1 | 4.1 µg/mL (≈ 11.9 µM)
58 | Cc1cnc(C(=O)NC2CCSc3ccccc32)cn1 (centres undefined) | 26.2 µg/mL (≈ 91.8 µM)
59 | CCN(CC)S(=O)(=O)c1ccc(Oc2ccccc2OC)cc1 | 10 µg/mL (≈ 29.8 µM)
